Test results: patent publication US10562912B2 (C&C Research Laboratories, priority 2013, dated 2020)

Assays:
Type in all cases: cell-based
STAT3 = biological target: T1, STAT3 (Homo sapiens, UniProt P40763); test: STAT3 reporter gene assay (luciferase), LNCaP stable cell line (pSTAT3-TA-luc), IL-6 stimulation
T1 construct: plasmid pSTAT3-TA-luc), which contains a stably operating STAT3 promoter; endogenous in cells
Procedure, shortened: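 LNCaP cells stably carrying pSTAT3-TA-luc, in RPMI1640 with 3% DCC-FBS, were treated with compound and then stimulated with 10 ng/mL IL-6 for 24–48 h at 37 °C. Luciferase activity was measured in lysates. A parallel plate measured viability by CellTiter-Glo, with stimulated 0.1% DMSO wells as the positive control.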

AGS = test: Cell growth inhibition assay, stomach cancer cell line AGS; conditions: Homo sapiens; AGS stomach cancer cell line, 3,000 cells/well
MDA-MB-231 = test: Cell growth inhibition assay, breast cancer cell line MDA-MB-231; conditions: Homo sapiens; MDA-MB-231 breast cancer cell line, 5,000 cells/well
LNCaP = test: Cell growth inhibition assay, prostate cancer cell line LNCaP (medium with 10 ng/mL IL-6); conditions: Homo sapiens, medium supplemented with 10 ng/mL of IL-6, 10,000 cells/well

T1 sequence (P40763 whole entry): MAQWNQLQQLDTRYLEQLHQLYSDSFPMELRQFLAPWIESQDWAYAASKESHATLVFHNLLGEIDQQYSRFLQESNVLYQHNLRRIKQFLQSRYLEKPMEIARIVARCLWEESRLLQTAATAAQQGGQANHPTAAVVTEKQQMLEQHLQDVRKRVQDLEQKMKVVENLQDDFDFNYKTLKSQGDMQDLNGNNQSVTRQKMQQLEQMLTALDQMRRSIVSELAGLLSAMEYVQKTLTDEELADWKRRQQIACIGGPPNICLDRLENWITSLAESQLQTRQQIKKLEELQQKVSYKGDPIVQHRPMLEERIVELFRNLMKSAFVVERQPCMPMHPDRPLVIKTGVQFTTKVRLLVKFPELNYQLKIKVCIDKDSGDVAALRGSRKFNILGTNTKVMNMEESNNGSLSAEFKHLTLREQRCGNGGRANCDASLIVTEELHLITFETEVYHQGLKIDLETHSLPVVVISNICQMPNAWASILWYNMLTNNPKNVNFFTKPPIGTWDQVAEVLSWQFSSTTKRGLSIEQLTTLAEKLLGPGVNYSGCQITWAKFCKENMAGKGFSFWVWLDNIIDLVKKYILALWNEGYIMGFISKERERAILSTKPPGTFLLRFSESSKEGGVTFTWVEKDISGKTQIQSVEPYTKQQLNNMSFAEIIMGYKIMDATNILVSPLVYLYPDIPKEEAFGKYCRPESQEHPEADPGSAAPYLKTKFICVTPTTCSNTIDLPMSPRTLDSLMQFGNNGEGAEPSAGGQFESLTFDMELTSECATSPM

In the case of CS(=O)(=O)Nc1ccc2cc(C(=O)Nc3cc(OCC(F)F)cc(C(F)(F)c4cccc(C#N)c4)c3)[nH]c2c1 [Example 391, N-(3-((3-cyanophenyl)difluoromethyl)-5-(2,2-difluoroethoxy)phenyl)-6-(methylsulfonamido)-1H-indole-2-carboxamide], the IC50 (STAT3) is reported as 2.4 µM, the IC50 (AGS) is reported as 18.1 µM and the IC50 (MDA-MB-231) is reported as 3.3 µM. The IC50 (LNCaP) was greater than 10 µM.

With CS(=O)(=O)Nc1ccc2cc(C(=O)Nc3cc(C(F)(F)F)cc(S(=O)(=O)c4cccc(OC(F)(F)F)c4)c3)[nH]c2c1 [Example 398, 6-(methylsulfonamido)-N-(3-((3-(trifluoromethoxy)phenyl)sulfonyl)-5-(trifluoromethyl)phenyl)-1H-indole-2-carboxamide] the IC50 (STAT3) was 1.6 µM, the IC50 (AGS) was 5.2 µM and the IC50 (MDA-MB-231) was 1.2 µM. The IC50 (LNCaP) was 2.6 µM.

With CN(c1ccc2cc(C(=O)Nc3cc(Br)cc(-c4ccc(F)cc4F)c3)n(C)c2c1)S(C)(=O)=O [Example 341, N-(5-bromo-2′,4′-difluoro-[1,1′-biphenyl]-3-yl)-1-methyl-6-(N-methylmethylsulfonamido)-1H-indole-2-carboxamide] the IC50 (STAT3) was 3.3 µM, the IC50 (AGS) was 5.3 µM and the IC50 (MDA-MB-231) was 7.5 µM. For the same compound, the IC50 (LNCaP) was 6.2 µM.

In the case of CS(=O)(=O)Nc1ccc2cc(C(=O)Nc3cccc(S(=O)(=O)c4ccccc4)c3)[nH]c2c1 [Example 395, 6-(methylsulfonamido)-N-(3-(phenylsulfonyl)phenyl)-1H-indole-2-carboxamide], the IC50 (STAT3) is reported as 2.1 µM, the IC50 (AGS) is reported as 20.6 µM and the IC50 (MDA-MB-231) is reported as 4.2 µM. It also gave an IC50 (LNCaP) greater than 10 µM.

For CS(=O)(=O)Nc1ccc2cc(C(=O)Nc3cccc(C(F)(F)c4cccc(C#N)c4)c3)[nH]c2c1 [Example 390, N-(3-((3-cyanophenyl)difluoromethyl)phenyl)-6-(methylsulfonamido)-1H-indole-2-carboxamide], the IC50 (STAT3) was 3.7 µM, the IC50 (AGS) was 9.6 µM and the IC50 (MDA-MB-231) was 1.1 µM. The IC50 (LNCaP) was 2.5 µM.

For COc1cc(NC(=O)c2cc3ccc(N(C)S(C)(=O)=O)cc3[nH]2)cc(-c2ccc(F)cc2F)c1 [Example 347, N-(2′,4′-difluoro-5-methoxy-[1,1′-biphenyl]-3-yl)-6-(N-methylmethylsulfonamido)-1H-indole-2-carboxamide], the IC50 (STAT3) was 1.5 µM, the IC50 (AGS) was 19.7 µM and the IC50 (MDA-MB-231) was 0.61 µM. For the same compound, the IC50 (LNCaP) was 7.9 µM.

CS(=O)(=O)Nc1ccc2cc(C(=O)Nc3cccc(-c4cccnc4C(F)(F)F)c3)[nH]c2c1 [Example 293, 6-(methylsulfonamido)-N-(3-(2-(trifluoromethyl)pyridin-3-yl)phenyl)-1H-indole-2-carboxamide] was tested, and the IC50 (STAT3) was 2.7 µM, the IC50 (AGS) was 24.6 µM and the IC50 (MDA-MB-231) was 1 µM. The IC50 (LNCaP) was 4.6 µM.

CS(=O)(=O)Nc1ccc2cc(C(=O)Nc3cc(OCC#N)cc(-c4ccc(F)cc4F)c3)[nH]c2c1 [Example 368, N-(5-(cyanomethoxy)-2′,4′-difluoro-[1,1′-biphenyl]-3-yl)-6-(methylsulfonamido)-1H-indole-2-carboxamide] showed an IC50 (STAT3) of 2.7 µM, an IC50 (AGS) of 11.5 µM and an IC50 (MDA-MB-231) of 1.7 µM. It also gave an IC50 (LNCaP) of 9.8 µM.

Compound CC(C)COc1cc(NC(=O)c2cc3ccc(NS(C)(=O)=O)cc3[nH]2)cc(-c2ccc(F)cc2F)c1 [Example 367, N-(2′,4′-difluoro-5-isobutoxy-[1,1′-biphenyl]-3-yl)-6-(methylsulfonamido)-1H-indole-2-carboxamide] has an IC50 (STAT3) of 0.38 µM, an IC50 (AGS) of 9.5 µM and an IC50 (MDA-MB-231) of 1.1 µM. For the same compound, the IC50 (LNCaP) was 7.4 µM.

For CS(=O)(=O)Nc1ccc2cc(C(=O)Nc3cccc(-c4ccccc4C(F)(F)F)c3)[nH]c2c1 [Example 260, 6-(methylsulfonamido)-N-(2′-(trifluoromethyl)-[1,1′-biphenyl]-3-yl)-1H-indole-2-carboxamide], the IC50 (STAT3) was 0.71 µM, the IC50 (AGS) was 2.7 µM and the IC50 (MDA-MB-231) was 0.92 µM. For the same compound, the IC50 (LNCaP) was 4.1 µM.

CS(=O)(=O)Nc1ccc2cc(C(=O)Nc3cc(OCC(F)F)cc(-c4ccc(F)cc4F)c3)[nH]c2c1 [Example 366, N-(5-(2,2-difluoroethoxy)-2′,4′-difluoro-[1,1′-biphenyl]-3-yl)-6-(methylsulfonamido)-1H-indole-2-carboxamide] gave an IC50 (STAT3) of 1.2 µM, an IC50 (AGS) of 8.9 µM and an IC50 (MDA-MB-231) of 0.58 µM. It also gave an IC50 (LNCaP) of 6.2 µM.

Compound CN(c1ccc2cc(C(=O)Nc3cc(Br)cc(-c4ccc(F)cc4F)c3)[nH]c2c1)S(C)(=O)=O [Example 342, N-(5-bromo-2′,4′-difluoro-[1,1′-biphenyl]-3-yl)-6-(N-methylmethylsulfonamido)-1H-indole-2-carboxamide] has an IC50 (STAT3) of 0.39 µM, an IC50 (AGS) of 9.6 µM and an IC50 (MDA-MB-231) of 0.52 µM. For the same compound, the IC50 (LNCaP) was 5 µM.

CC(C)COc1cc(NC(=O)c2cc3ccc(NS(C)(=O)=O)cc3[nH]2)cc(S(=O)(=O)c2cccc(OC(F)(F)F)c2)c1 [Example 400, N-(3-isobutoxy-5-((3-(trifluoromethoxy)phenyl)sulfonyl)phenyl)-6-(methylsulfonamido)-1H-indole-2-carboxamide] was tested, and the IC50 (STAT3) was 3.2 µM, the IC50 (AGS) was 14.9 µM and the IC50 (MDA-MB-231) was 3.5 µM. For the same compound, the IC50 (LNCaP) was greater than 10 µM.

CS(=O)(=O)Nc1ccc2cc(C(=O)Nc3cc(OCC#N)cc(C(F)(F)c4cccc(C#N)c4)c3)[nH]c2c1 [Example 393, N-(3-(cyanomethoxy)-5-((3-cyanophenyl)difluoromethyl)phenyl)-6-(methylsulfonamido)-1H-indole-2-carboxamide] showed an IC50 (STAT3) greater than 10 µM, an IC50 (AGS) of 10.3 µM and an IC50 (MDA-MB-231) of 5 µM. For the same compound, the IC50 (LNCaP) was greater than 10 µM.

Work on CS(=O)(=O)Nc1ccc2cc(C(=O)Nc3cc(OCC(F)F)cc(S(=O)(=O)c4cccc(OC(F)(F)F)c4)c3)[nH]c2c1 [Example 401, N-(3-(2,2-difluoroethoxy)-5-((3-(trifluoromethoxy)phenyl)sulfonyl)phenyl)-6-(methylsulfonamido)-1H-indole-2-carboxamide] yielded an IC50 (STAT3) of 4 µM, an IC50 (AGS) of 7.3 µM and an IC50 (MDA-MB-231) of 2.5 µM. The IC50 (LNCaP) was 8 µM.

For CS(=O)(=O)Nc1ccc2cc(C(=O)Nc3cccc(S(=O)(=O)c4cccc(OC(F)(F)F)c4)c3)[nH]c2c1 [Example 396], the IC50 (STAT3) was 2.5 µM, the IC50 (AGS) was 11.8 µM and the IC50 (MDA-MB-231) was 1.2 µM. It also gave an IC50 (LNCaP) of 8.9 µM.

In the case of CS(=O)(=O)Nc1ccc2cc(C(=O)Nc3cc(C#N)cc(-c4ccc(F)cc4F)c3)[nH]c2c1 [Example 301, N-(5-cyano-2′,4′-difluoro-[1,1′-biphenyl]-3-yl)-6-(methylsulfonamido)-1H-indole-2-carboxamide], the IC50 (STAT3) is reported as 3.3 µM, the IC50 (AGS) is reported as 5.7 µM and the IC50 (MDA-MB-231) is reported as 0.72 µM. For the same compound, the IC50 (LNCaP) was 3.9 µM.

CS(=O)(=O)Nc1ccc2cc(C(=O)Nc3cc(C#N)cc(S(=O)(=O)c4cccc(OC(F)(F)F)c4)c3)[nH]c2c1 [Example 399, N-(3-cyano-5-((3-(trifluoromethoxy)phenyl)sulfonyl)phenyl)-6-(methylsulfonamido)-1H-indole-2-carboxamide] gave an IC50 (STAT3) of 2.8 µM, an IC50 (AGS) of 13.2 µM and an IC50 (MDA-MB-231) of 3.4 µM. For the same compound, the IC50 (LNCaP) was greater than 10 µM.

CS(=O)(=O)Nc1ccc2c(C(=O)Nc3cccc(-c4ccc(F)cc4F)c3)c[nH]c2c1 [Example 275, N-(2′,4′-difluoro-[1,1′-biphenyl]-3-yl)-6-(methylsulfonamido)-1H-indole-3-carboxamide] gave an IC50 (STAT3) of 3.3 µM, an IC50 (AGS) of 5.7 µM and an IC50 (MDA-MB-231) greater than 10 µM. It also gave an IC50 (LNCaP) of 9 µM.

COc1cc(NC(=O)c2cc3ccc(NS(C)(=O)=O)cc3[nH]2)cc(S(=O)(=O)c2cccc(OC(F)(F)F)c2)c1 [Example 397, N-(3-methoxy-5-((3-(trifluoromethoxy)phenyl)sulfonyl)phenyl)-6-(methylsulfonamido)-1H-indole-2-carboxamide] gave an IC50 (STAT3) of 3 µM, an IC50 (AGS) of 8.7 µM and an IC50 (MDA-MB-231) of 2.8 µM. It also gave an IC50 (LNCaP) of 5.8 µM.

With COc1cc(NC(=O)c2cc3ccc(N(C)S(C)(=O)=O)cc3n2C)cc(-c2ccc(F)cc2F)c1 [Example 348, N-(2′,4′-difluoro-5-methoxy-[1,1′-biphenyl]-3-yl)-1-methyl-6-(N-methylmethylsulfonamido)-1H-indole-2-carboxamide] the IC50 (STAT3) was greater than 10 µM, the IC50 (AGS) was 4.8 µM and the IC50 (MDA-MB-231) was greater than 10 µM. It also gave an IC50 (LNCaP) of 7.2 µM.
